Source: paper PMC9939733 (The Journal of Biological Chemistry, 2023)
Numbering of substitutions follows the chain as printed. Several values for one entry are separate records, joined by “and”; a condition that tells them apart may be missing. Identical values can stand only once. Counter-ions that a name gives are not always drawn.

Tests used:
Assay type in all cases: biochemical
R140Q IDH2 [1] = target: T1, R140Q IDH2 (Homo sapiens, UniProt P48735, R140Q); assay: Absorbance assay (NADPH consumption), substrate turnover in the absence of 2OG
T1 construct: made in house; host or cells: Sf21 insect cells (cell pellets prepared at Evotec)
T1 sequence (P48735 40-452 R140Q): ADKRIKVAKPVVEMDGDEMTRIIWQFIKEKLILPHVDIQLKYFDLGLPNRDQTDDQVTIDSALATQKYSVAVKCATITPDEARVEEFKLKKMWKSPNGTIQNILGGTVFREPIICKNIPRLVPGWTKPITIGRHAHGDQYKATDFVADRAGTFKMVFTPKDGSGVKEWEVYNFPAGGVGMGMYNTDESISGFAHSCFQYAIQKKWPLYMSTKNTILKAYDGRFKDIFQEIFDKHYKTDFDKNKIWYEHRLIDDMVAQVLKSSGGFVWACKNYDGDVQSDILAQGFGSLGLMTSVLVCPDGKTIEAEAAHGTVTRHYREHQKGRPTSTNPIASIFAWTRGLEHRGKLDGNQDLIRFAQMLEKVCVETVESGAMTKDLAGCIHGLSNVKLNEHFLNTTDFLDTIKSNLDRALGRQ
How it was run: (§1)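 Starting each reaction by automated reagent dispensing after simultaneous compound pipetting, the work used quadruplicate technical replicates.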

R172K IDH2 [2] = target: T2, R172K IDH2 (Homo sapiens, UniProt P48735, R172K); assay: as above
T2 construct: made in house; host or cells: Sf21 insect cells (cell pellets prepared at Evotec)
T2 sequence (P48735 40-452 R172K): T1 sequence (P48735 40-452 R140Q) with Q101R, R133K
How it was run: as §1

R140Q IDH2 [3] = target: T1, R140Q IDH2; assay: Absorbance assay, variant activity in the presence of equimolar 2OG (inhibition screen)
How it was run: as §1

R172K IDH2 [4] = target: T2, R172K IDH2; assay: as above
How it was run: as §1

R132H IDH1 [5] = target: T3, R132H IDH1 (Homo sapiens, UniProt O75874, R132H); assay: Absorbance assay (NADPH consumption), substrate turnover in the absence of 2OG; set-up: made in house; host or cells: Escherichia coli BL21(DE3) pLyS
T3 sequence (O75874 whole entry R132H): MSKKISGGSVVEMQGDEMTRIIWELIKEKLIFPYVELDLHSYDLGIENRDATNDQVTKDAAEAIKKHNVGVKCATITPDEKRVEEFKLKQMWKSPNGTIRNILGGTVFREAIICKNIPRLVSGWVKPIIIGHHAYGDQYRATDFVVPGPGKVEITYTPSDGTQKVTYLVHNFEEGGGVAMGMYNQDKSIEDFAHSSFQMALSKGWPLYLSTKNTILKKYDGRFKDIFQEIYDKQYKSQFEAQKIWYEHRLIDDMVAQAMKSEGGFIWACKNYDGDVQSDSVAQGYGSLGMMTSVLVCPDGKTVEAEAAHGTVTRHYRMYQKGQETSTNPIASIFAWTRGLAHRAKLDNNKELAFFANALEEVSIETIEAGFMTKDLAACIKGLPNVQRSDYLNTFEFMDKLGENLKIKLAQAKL
How it was run: as §1

WT IDH2 [6] = target: T4, WT IDH2 (Homo sapiens, UniProt P48735); assay: Absorbance assay, WT activity in the presence of equimolar DL-isocitrate (inhibition)
T4 construct: made in house; host or cells: Sf21 insect cells (cell pellets prepared at Evotec)
T4 sequence (P48735 40-452): T1 sequence (P48735 40-452 R140Q) with Q101R
How it was run: as §1

WT IDH1 [7] = target: T5, WT IDH1 (Homo sapiens, UniProt O75874); assay: as above
T5 construct: made in house; host or cells: Escherichia coli BL21(DE3) pLyS
T5 sequence (O75874 whole entry): as the sequence (O75874 whole entry R132H) above, with H132R counted along it
How it was run: as §1

WT IDH2 [8] = target: T4, WT IDH2; assay: Absorbance assay, substrate activity in the absence of DL-isocitrate
How it was run: as §1

WT IDH1 [9] = target: T5, WT IDH1; assay: as above
How it was run: as §1

R132H IDH1 [10] = target: T3, R132H IDH1; assay: Absorbance assay, variant activity in the presence of equimolar 2OG (inhibition screen); set-up: made in house; host or cells: Escherichia coli BL21(DE3) pLyS
How it was run: as §1

[11] = no 2OG, 6.0 mM test compound, 0.03 μM R140Q IDH2, 50 μM NADPH, 2OG = 100
[12] = no 2OG, 1.0 mM test compound, 0.03 μM R172K IDH2, 50 μM NADPH, 2OG = 100
[13] = 6.0 mM 2OG and 6.0 mM test compound, 0.03 μM R140Q IDH2, 50 μM NADPH
[14] = 1.0 mM 2OG and 1.0 mM test compound, 0.03 μM R172K IDH2, 50 μM NADPH
[15] = no 2OG, […] test compound, 0.03 μM R132H IDH1, 50 μM NADPH, 2OG = 100
[16] = […] isocitrate and […] test compound, 75 μM NADP+, 2.0 nM WT IDH2
[17] = […] isocitrate and […] test compound, 75 μM NADP+, 2.0 nM WT IDH1
[18] = no DL-isocitrate, […] test compound, 75 μM NADP+, 2.0 nM WT IDH2, compared to DL-isocitrate
[19] = no DL-isocitrate, […] test compound, 75 μM NADP+, 2.0 nM WT IDH1, compared to DL-isocitrate
[20] = […] 2OG and […] test compound, 0.03 μM R132H IDH1, 50 μM NADPH

Compound	activity [%] (%-substrate conversion after 20 min incubation) (R140Q IDH2 [1]; [11])	activity [%] (%-substrate conversion after 20 min incubation) (R172K IDH2 [2]; [12])	activity [%] (%-substrate conversion after 20 min incubation) (R140Q IDH2 [3]; [13])	activity [%] (%-substrate conversion after 20 min incubation) (R172K IDH2 [4]; [14])	activity [%] (%-substrate conversion after 20 min incubation) (R132H IDH1 [5]; [15])	activity [%] (%-substrate conversion after 20 min incubation) (WT IDH2 [6]; [16])	activity [%] (%-substrate conversion after 20 min incubation) (WT IDH1 [7]; [17])	activity [%] (%-substrate conversion after 20 min incubation) (WT IDH2 [8]; [18])	activity [%] (%-substrate conversion after 20 min incubation) (WT IDH1 [9]; [19])	activity [%] (%-substrate conversion after 20 min incubation) (R132H IDH1 [10]; [20])	activity [%] (%-substrate conversion after 20 min incubation) (R140Q IDH2 [1])	activity [%] (%-substrate conversion after 20 min incubation) (R172K IDH2 [2])	activity [%] (%-substrate conversion after 20 min incubation) (R140Q IDH2 [3])	activity [%] (%-substrate conversion after 20 min incubation) (R172K IDH2 [4])	activity [%] (%-substrate conversion after 20 min incubation) (R132H IDH1 [5])	activity [%] (%-substrate conversion after 20 min incubation) (WT IDH2 [6])	activity [%] (%-substrate conversion after 20 min incubation) (WT IDH1 [7])	activity [%] (%-substrate conversion after 20 min incubation) (WT IDH2 [8])	activity [%] (%-substrate conversion after 20 min incubation) (WT IDH1 [9])	activity [%] (%-substrate conversion after 20 min incubation) (R132H IDH1 [10])
O=CC(=O)O [glyoxylic acid]	< 10	< 10	105 ± 6	99 ± 6	< 10	99 ± 2	104 ± 2	< 10	< 10	108 ± 5	–	–	–	–	–	–	–	–	–	–
C/C(=C\C(=O)O)C(=O)O [mesaconic acid]	< 10	< 10	116 ± 9	104 ± 5	< 10	100 ± 2	105 ± 2	< 10	< 10	105 ± 3	–	–	–	–	–	–	–	–	–	–
O=C(O)CC(=O)O [malonic acid]	< 10	< 10	117 ± 11	98 ± 4	< 10	100 ± 2	100 ± 1	< 10	< 10	103 ± 4	–	–	–	–	–	–	–	–	–	–
COC(=O)/C=C/C(=O)O [mono-methyl fumarate]	< 10	< 10	98 ± 4	92 ± 6	< 10	98 ± 1	102 ± 2	< 10	< 10	90 ± 4	–	–	–	–	–	–	–	–	–	–
COC(=O)/C=C/C(=O)OC [dimethyl fumarate]	< 10	< 10	61 ± 11	91 ± 2	< 10	100 ± 3	104 ± 4	< 10	< 10	85 ± 3	–	–	–	–	–	–	–	–	–	–
CC(C(=O)O)C(C)C(=O)O (centres unmarked) [1,2-dimethylsuccinic acid]	< 10	< 10	110 ± 3	99 ± 5	< 10	99 ± 1	103 ± 1	< 10	< 10	100 ± 2	–	–	–	–	–	–	–	–	–	–
O=C1CC(C(=O)O)C(C(=O)O)O1 (racemic) [DL-isocitric acid lactone]	–	–	–	–	–	–	–	–	–	–	< 10	< 10	118 ± 18	95 ± 3	< 10	106 ± 2	105 ± 2	~10% and 11 ± 1%	~10% and 12 ± 4%	99 ± 2
C[C@@](O)(CC(=O)O)C(=O)O [(R)-citramalic acid]	< 10	< 10	110 ± 9	100 ± 5	< 10	99 ± 2	101 ± 1	< 10	< 10	95 ± 2	–	–	–	–	–	–	–	–	–	–
